In BindingDB's records for doi:10.1021/jm990205m (University of Michigan, 2000):

Test: Antiviral activity was tested in cells acutely infected with HIV-1 Reverse transcriptase

Question: Which IC50 does the source give for CN1N=C(N)c2cn(C3O[C@H](CO)[C@H]4O[C@H]34)c3ncnc1c23 (stereo partly specified) [[4-(3-Amino-5-methyl-5H-1,4,5,6,8-pentaaza-acenaphthylen-1-yl)-3,6-dioxa-bicyclo[3.1.0]hex-2-yl]-methanol(2',3'-epoxyTCN)] here?
Answer: > 100 µM

Test: Antiviral activity was tested in cells acutely infected with HIV-1 RT (reverse transcriptase)

Question: Which IC50 does the source give for C[C@H]1OC(n2cc3c4c(ncnc42)N(C)N=C3N)[C@H](O)[C@@H]1O (stereo partly specified) here?
Answer: > 100 µM

Question: With CN1N=C(N)c2cn([C@@H]3O[C@H](CO)C[C@H]3O)c3ncnc1c23 as the compound, how does the IC50 read?
Answer: > 100 µM

Question: With CN1N=C(N)c2cn([C@H]3CC[C@@H](CO)O3)c3ncnc1c23 as the compound, how does the IC50 read?
Answer: 21 µM

Question: For CN1N=C(N)c2cn(C3C[C@@H](O)[C@@H](CO)O3)c3ncnc1c23 (stereo partly specified) [5-(3-Amino-5-methyl-5H-1,4,5,6,8-pentaaza-acenaphthylen-1-yl)-2-hydroxymethyl-tetrahydro-furan-3-ol], which IC50 is on record?
Answer: > 100 µM

Question: For CN1N=C(N)c2cn(C3C=C[C@@H](CO)O3)c3ncnc1c23 (stereo partly specified) [[5-(3-Amino-5-methyl-5H-1,4,5,6,8-pentaaza-acenaphthylen-1-yl)-2,5-dihydro-furan-2-yl]-methanol], which IC50 is on record?
Answer: 100 µM
